Source: patent US6156700A, “3-(1,2-Benzisothiazol- and isoxazol-5-yl)-2,4(1H,3H)-pyrimidinedione or thione and 3-(1,2-benzisothiazol- and isoxazol-5-yl)-4(3H)-pyrimidinone or thione herbicidal agents” (American Cyanmid Company, priority 1998, dated 2000)

How the values were obtained:
[1] = system: Foxtail, Green, Setaria viridis; assay: Postemergence herbicidal evaluation, SETVI; type: in vivo, (L.) Beau; details: 0.2500 kg/ha
Method in brief: (§1)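 Seedlings grown about two weeks were sprayed with compound in 50/50 acetone/water containing 0.5% TWEEN 20 at rates equivalent to about 0.0157–0.500 kg/ha, nozzle at 40 psi. Injury was rated visually 0–9 versus control four to five weeks after treatment; replicate tests averaged.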

[2] = system: Soybean, Williams, Glycine max; assay: Postemergence herbicidal evaluation, GLXMAW; type: in vivo, (L.) Merr. cv Williams; details: 0.2500 kg/ha
Method in brief: as §1

[3] = system: Wheat, Winter, cv Riband, Triticum aestivum; assay: Postemergence herbicidal evaluation, TRZAWR; type: in vivo; details: 0.2500 kg/ha
Method in brief: as §1

[4] = system: Wheat, Winter, cv Riband, Triticum aestivum; assay: Preemergence herbicidal evaluation, TRZAWR; type: in vivo; details: 0.2500 kg/ha
Description: (§2) Results of herbicide evaluation are expressed on a rating scale (0-9). The scale is based upon a visual observation of plant stand, vigor, malformation, size, chlorosis and overall plant appearance as compared with a control.
(§3) The preemergence herbicidal activity of the test compounds of the present invention is exemplified by the following tests in which the seeds of a variety of monocotyledonous and dicotyledonous plants are separately mixed with potting soil and planted on top of approximately one inch of soil in separate pint cups. After planting, the cups are sprayed with the selected aqueous acetone solution containing test compound in sufficient quantity to provide the equivalent of about 0.0156 to 0.500 kg per hectare of test compound per cup. The treated cups are then placed on greenhouse benches, watered and cared for in accordance with conventional greenhouse procedures. From four to five weeks after treatment, the tests are terminated and each cup is examined and rated according to the rating system provided in Example 185.
(§4) The compounds evaluated are reported by compound number given in Example 185.

[5] = system: Rice, Tebonnet, Oryza sativa; assay: Postemergence herbicidal evaluation, ORYSAT; type: in vivo, (L.) Tebonnet; details: 0.2500 kg/ha
Method in brief: as §1

[6] = system: Morningglory Spp., Ipomoea Spp.; assay: Preemergence herbicidal evaluation, IPOSS; type: in vivo; details: 0.2500 kg/ha
Description: as §2, §3, §4

CYPSE Flatsedge [7] = assay: Preemergence weed control, flooded paddy (Table III); type: in vivo, Cyperus serotinus; design: scale not given here
Procedure: (§5) Preemergence herbicidal activity under flooded paddy conditions is determined as follows: plant seeds or propagating organs are planted in the top 0.5 cm of silt loam soil in 32 oz. plastic containers with a diameter of 10.5 cm and no drainage holes. Water is added to these containers and maintained at 1.5 to 3 cm above the soil surface for the duration of the experiment. The test compounds are applied as aqueous/acetone mixtures 50/50 v/v pipetted directly into the flood water to give the equivalent of about 0.0313 to 0.500 kg/ha of active ingredient. The treated containers are placed on greenhouse benches and cared for in accordance with conventional greenhouse procedures. Three to four weeks after treatment, the test is terminated and each container is examined and herbicidal effect rated according to the rating system provided in Example 185. The compounds evaluated are reported by compound number given in Example 185.

Corn, Field, Zea mays = assay: Postemergence herbicidal evaluation, ZEAMX; type: in vivo, L.; details: 0.2500 kg/ha
Method in brief: as §1

CYPIR Rice Flatsedge = assay: Postemergence weed control, flooded paddy (Table IV); type: in vivo, Cyperus iria; design: scale not given here
Description: (§6) Plastic containers containing weeds which are 3 to 5 cm tall and rice seedlings at the 1.5 to 2.5 leaf stage are flooded with water. The water is maintained at 1.5 to 3 cm above the soil surface for the duration of the experiment. Test compounds are applied as aqueous/acetone mixtures 50/50 v/v directly into the flood water to provide the equivalent of about 0.0313 to 0.500 kg/ha of active ingredient. The treated containers are placed on greenhouse benches and cared for in accordance with conventional greenhouse procedures. Three to four weeks after treatment, the test is terminated and each container is examined and herbicidal effect rated according to the rating system provided in Example 185. The compounds evaluated are reported by compound number given in Example 185.

ORYSAT Rice, Tebonnet = assay: Rice tolerance, flooded paddy (Table IV); type: in vivo, Oryza sativa; design: scale not given here; details: crop tolerance
Description: as §6

[8] = system: SAGPY Arrowhead (Pygmaea); assay: Preemergence weed control, flooded paddy (Table III); type: in vivo, Sagittaria pygmaea; design: scale not given here
Procedure: as §5

CYPSE Flatsedge [9] = assay: Postemergence weed control, flooded paddy (Table IV); type: in vivo, Cyperus serotinus; design: scale not given here
Description: as §6

[10] = system: Barnyardgrass, Echinochloa crus-galli; assay: Postemergence herbicidal evaluation, ECHCG; type: in vivo, (L.) Beau; details: 0.2500 kg/ha
Method in brief: as §1

[11] = system: SAGPY Arrowhead (Pygmaea); assay: Postemergence weed control, flooded paddy (Table IV); type: in vivo, Sagittaria pygmaea; design: scale not given here
Description: as §6

[12] = system: Sicklepod, Cassia obtusifolia; assay: Preemergence herbicidal evaluation, CASOB; type: in vivo, L.; details: 0.2500 kg/ha
Description: as §2, §3, §4

MOOVA Monochoria = assay: Preemergence weed control, flooded paddy (Table III); type: in vivo, Monochoria vaginalis; design: scale not given here
Procedure: as §5

[13] = system: Lambsquarters, Common, Chenopodium album; assay: Postemergence herbicidal evaluation, CHEAL; type: in vivo, L.; details: 0.2500 kg/ha
Method in brief: as §1

## COC(=O)C(C)Oc1cc(C)ccc1-c1nsc2ccc(-n3c(=O)cc(C(F)(F)F)n(C)c3=O)cc12 (stereo not shown) [Compound 9, Methyl 2-{{6-{5-[3,6-dihydro-3-methyl-4-(trifluoromethyl)-2,6-dioxo-1(2H)-pyrimidinyl]-1,2-benzisothiazol-3-yl}-m-tolyl}oxy}propionate]
[1]
  herbicide rating (0-9): 9.0
[2]
  herbicide rating (0-9): 9.0
[3]
  herbicide rating (0-9): 9.0
[4]
  herbicide rating (0-9): 9.0
[5]
  herbicide rating (0-9): 9.0
[6]
  herbicide rating (0-9): 9.0
CYPSE Flatsedge [7]; 0.0313 kg/ha
  herbicidal effect rating: 2.0
CYPSE Flatsedge [7]; 0.0625 kg/ha
  herbicidal effect rating: 4.0
CYPSE Flatsedge [7]; 0.1250 kg/ha
  herbicidal effect rating: 9.0
CYPSE Flatsedge [7]; 0.2500 kg/ha
  herbicidal effect rating: 9.0
CYPSE Flatsedge [7]; 0.5000 kg/ha
  herbicidal effect rating: 9.0
Corn, Field, Zea mays
  herbicide rating (0-9): 9.0
CYPIR Rice Flatsedge; 0.1250 kg/ha
  herbicidal effect rating: 9.0
CYPIR Rice Flatsedge; 0.2500 kg/ha
  herbicidal effect rating: 9.0
CYPIR Rice Flatsedge; 0.5000 kg/ha
  herbicidal effect rating: 9.0
ORYSAT Rice, Tebonnet; 0.1250 kg/ha
  herbicidal effect rating: 7.0
ORYSAT Rice, Tebonnet; 0.2500 kg/ha
  herbicidal effect rating: 9.0
ORYSAT Rice, Tebonnet; 0.5000 kg/ha
  herbicidal effect rating: 9.0
[8]; 0.0313 kg/ha
  herbicidal effect rating: 0.0
[8]; 0.0625 kg/ha
  herbicidal effect rating: 2.0
[8]; 0.1250 kg/ha
  herbicidal effect rating: 8.0
[8]; 0.2500 kg/ha
  herbicidal effect rating: 8.0
[8]; 0.5000 kg/ha
  herbicidal effect rating: 9.0
CYPSE Flatsedge [9]; 0.1250 kg/ha
  herbicidal effect rating: 2.0
CYPSE Flatsedge [9]; 0.2500 kg/ha
  herbicidal effect rating: 7.0
CYPSE Flatsedge [9]; 0.5000 kg/ha
  herbicidal effect rating: 9.0
[10]
  herbicide rating (0-9): 9.0
[11]; 0.1250 kg/ha
  herbicidal effect rating: 2.0
[11]; 0.2500 kg/ha
  herbicidal effect rating: 9.0
[11]; 0.5000 kg/ha
  herbicidal effect rating: 9.0
[12]
  herbicide rating (0-9): 9.0
MOOVA Monochoria; 0.0313 kg/ha
  herbicidal effect rating: 9.0
MOOVA Monochoria; 0.0625 kg/ha
  herbicidal effect rating: 9.0
MOOVA Monochoria; 0.1250 kg/ha
  herbicidal effect rating: 9.0
MOOVA Monochoria; 0.2500 kg/ha
  herbicidal effect rating: 9.0
MOOVA Monochoria; 0.5000 kg/ha
  herbicidal effect rating: 9.0

## Cc1cc(O)c(-c2nsc3ccc(-n4c(=O)cc(C(F)(F)F)n(C)c4=O)cc23)cc1C [Compound 11, 3-[3-(6-Hydroxy-3,4-xylyl)-1,2-benzisothiazol-5-yl]-1-methyl-6-(trifluoromethyl)-2,4(1H,3H)-pyrimidinedione]
[1]
  herbicide rating (0-9): 8.0
[2]
  herbicide rating (0-9): 6.0
[3]
  herbicide rating (0-9): 5.0
[4]
  herbicide rating (0-9): 4.0
[5]
  herbicide rating (0-9): 2.0
[6]
  herbicide rating (0-9): 5.0
CYPSE Flatsedge [7]; 0.0625 kg/ha
  herbicidal effect rating: 2.0
CYPSE Flatsedge [7]; 0.1250 kg/ha
  herbicidal effect rating: 2.0
CYPSE Flatsedge [7]; 0.2500 kg/ha
  herbicidal effect rating: 2.0
CYPSE Flatsedge [7]; 0.5000 kg/ha
  herbicidal effect rating: 7.0
Corn, Field, Zea mays
  herbicide rating (0-9): 5.5
CYPIR Rice Flatsedge; 0.1250 kg/ha
  herbicidal effect rating: 9.0
CYPIR Rice Flatsedge; 0.2500 kg/ha
  herbicidal effect rating: 9.0
CYPIR Rice Flatsedge; 0.5000 kg/ha
  herbicidal effect rating: 9.0
[13]
  herbicide rating (0-9): 9.0
ORYSAT Rice, Tebonnet; 0.1250 kg/ha
  herbicidal effect rating: 0.0
ORYSAT Rice, Tebonnet; 0.2500 kg/ha
  herbicidal effect rating: 1.0
ORYSAT Rice, Tebonnet; 0.5000 kg/ha
  herbicidal effect rating: 1.0
[8]; 0.0625 kg/ha
  herbicidal effect rating: 0.0
[8]; 0.1250 kg/ha
  herbicidal effect rating: 0.0
[8]; 0.2500 kg/ha
  herbicidal effect rating: 2.0
[8]; 0.5000 kg/ha
  herbicidal effect rating: 9.0
CYPSE Flatsedge [9]; 0.1250 kg/ha
  herbicidal effect rating: 0.0
CYPSE Flatsedge [9]; 0.2500 kg/ha
  herbicidal effect rating: 0.0
CYPSE Flatsedge [9]; 0.5000 kg/ha
  herbicidal effect rating: 0.0
[10]
  herbicide rating (0-9): 7.0
[11]; 0.1250 kg/ha
  herbicidal effect rating: 0.0
[11]; 0.2500 kg/ha
  herbicidal effect rating: 4.0
[11]; 0.5000 kg/ha
  herbicidal effect rating: 7.0
[12]
  herbicide rating (0-9): 3.0
MOOVA Monochoria; 0.0625 kg/ha
  herbicidal effect rating: 9.0
MOOVA Monochoria; 0.1250 kg/ha
  herbicidal effect rating: 9.0
MOOVA Monochoria; 0.2500 kg/ha
  herbicidal effect rating: 9.0
MOOVA Monochoria; 0.5000 kg/ha
  herbicidal effect rating: 9.0
